Assay results as given in US12516022B2, “Derivatives of aryl hydrocarbon receptor agonists” (AZORA THERAPEUTICS, INC., priority 2021, dated 2026).

Test: Time course of conversion to indirubin in FaSSGF at 37° C.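 Further: compound incubated in fasted state simulated gastric fluid, species in samples quantified by UPLC-MS with UV (210–400 nm) and ELS detection.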
Format: physicochemical
Conditions: FaSSGF (Example 4; table title prints FaSSIF) 37° C., 15 min
With `CCN(CC)CN1C(=O)/C(=C2\Nc3ccccc3C2=O)c2ccccc21` [drawing 267] the indirubin was 100%, the indirubin methylene alcohol was 0% and the “starting material (prodrug compound)” value was 0%.
In the case of `CN(C)CCN(C)CN1C(=O)/C(=C2\Nc3ccccc3C2=O)c2ccccc21` [drawing 268], the indirubin is reported as 93%, the indirubin methylene alcohol is reported as 6% and the “starting material (prodrug compound)” value is reported as 0%.
For `O=C1/C(=C2/C(=O)N(CN3CCCCC3)c3ccccc32)Nc2ccccc21` [drawing 269], the indirubin was 99%, the indirubin methylene alcohol was 0% and the “starting material (prodrug compound)” value was 1%.
For `O=C1/C(=C2/C(=O)N(CN3CCCC3)c3ccccc32)Nc2ccccc21` [drawing 270], the indirubin was 100%, the indirubin methylene alcohol was 0% and the “starting material (prodrug compound)” value was 0%.
For `CN(C)CCN(CCN(C)C)CN1C(=O)/C(=C2\Nc3ccccc3C2=O)c2ccccc21` [drawing 271], the indirubin was 90%, the indirubin methylene alcohol was 5% and the “starting material (prodrug compound)” value was 4%.
For `CN(C)C1CCN(CN2C(=O)/C(=C3\Nc4ccccc4C3=O)c3ccccc32)CC1` [drawing 272], the indirubin was 51%, the indirubin methylene alcohol was 5% and the “starting material (prodrug compound)” value was 41%.
In the case of `CN1CCN(CN2C(=O)/C(=C3\Nc4ccccc4C3=O)c3ccccc32)CC1` [drawing 273], the indirubin is reported as 23%, the indirubin methylene alcohol is reported as 0% and the “starting material (prodrug compound)” value is reported as 75%.
With `O=C1/C(=C2/C(=O)N(CO)c3ccccc32)Nc2ccccc21` [drawing 274] the indirubin was 8%, the indirubin methylene alcohol was 92% and the “starting material (prodrug compound)” value was 0%.
For `O=C1/C(=C2/C(=O)N(CN3CCC3)c3ccccc32)Nc2ccccc21` [drawing 275], the indirubin was 25%, the indirubin methylene alcohol was 2% and the “starting material (prodrug compound)” value was 71%.
With `O=C1/C(=C2/C(=O)N(CN3CCOCC3)c3ccccc32)Nc2ccccc21` [drawing 276] the indirubin was 7%, the indirubin methylene alcohol was 0% and the “starting material (prodrug compound)” value was 89%.
For `O=C1/C(=C2/C(=O)N(COS(=O)(=O)O)c3ccccc32)Nc2ccccc21` [drawing 277], the indirubin was 0%, the indirubin methylene alcohol was 15% and the “starting material (prodrug compound)” value was 83%.

Same assay, conditions: FaSSGF (Example 4; table title prints FaSSIF) 37° C., 30 min
With `CCN(CC)CN1C(=O)/C(=C2\Nc3ccccc3C2=O)c2ccccc21` [drawing 267] the indirubin was 100%, the indirubin methylene alcohol was 0% and the “starting material (prodrug compound)” value was 0%.
With `CN(C)CCN(C)CN1C(=O)/C(=C2\Nc3ccccc3C2=O)c2ccccc21` [drawing 268] the indirubin was 93%, the indirubin methylene alcohol was 6% and the “starting material (prodrug compound)” value was 0%.
For `O=C1/C(=C2/C(=O)N(CN3CCCCC3)c3ccccc32)Nc2ccccc21` [drawing 269], the indirubin was 99%, the indirubin methylene alcohol was 0% and the “starting material (prodrug compound)” value was 1%.
In the case of `O=C1/C(=C2/C(=O)N(CN3CCCC3)c3ccccc32)Nc2ccccc21` [drawing 270], the indirubin is reported as 100%, the indirubin methylene alcohol is reported as 0% and the “starting material (prodrug compound)” value is reported as 0%.
For `CN(C)CCN(CCN(C)C)CN1C(=O)/C(=C2\Nc3ccccc3C2=O)c2ccccc21` [drawing 271], the indirubin was 94%, the indirubin methylene alcohol was 4% and the “starting material (prodrug compound)” value was 2%.
In the case of `CN(C)C1CCN(CN2C(=O)/C(=C3\Nc4ccccc4C3=O)c3ccccc32)CC1` [drawing 272], the indirubin is reported as 55%, the indirubin methylene alcohol is reported as 5% and the “starting material (prodrug compound)” value is reported as 36%.
In the case of `CN1CCN(CN2C(=O)/C(=C3\Nc4ccccc4C3=O)c3ccccc32)CC1` [drawing 273], the indirubin is reported as 18%, the indirubin methylene alcohol is reported as 0% and the “starting material (prodrug compound)” value is reported as 76%.
In the case of `O=C1/C(=C2/C(=O)N(CO)c3ccccc32)Nc2ccccc21` [drawing 274], the indirubin is reported as 18%, the indirubin methylene alcohol is reported as 82% and the “starting material (prodrug compound)” value is reported as 0%.
For `O=C1/C(=C2/C(=O)N(CN3CCC3)c3ccccc32)Nc2ccccc21` [drawing 275], the indirubin was 26%, the indirubin methylene alcohol was 4% and the “starting material (prodrug compound)” value was 70%.
In the case of `O=C1/C(=C2/C(=O)N(CN3CCOCC3)c3ccccc32)Nc2ccccc21` [drawing 276], the indirubin is reported as 8%, the indirubin methylene alcohol is reported as 0% and the “starting material (prodrug compound)” value is reported as 85%.
With `O=C1/C(=C2/C(=O)N(COS(=O)(=O)O)c3ccccc32)Nc2ccccc21` [drawing 277] the indirubin was 0%, the indirubin methylene alcohol was 23% and the “starting material (prodrug compound)” value was 67%.

Same assay, conditions: FaSSGF (Example 4; table title prints FaSSIF) 37° C., 1 h
In the case of `CCN(CC)CN1C(=O)/C(=C2\Nc3ccccc3C2=O)c2ccccc21` [drawing 267], the indirubin is reported as 100%, the indirubin methylene alcohol is reported as 0% and the “starting material (prodrug compound)” value is reported as 0%.
For `CN(C)CCN(C)CN1C(=O)/C(=C2\Nc3ccccc3C2=O)c2ccccc21` [drawing 268], the indirubin was 92%, the indirubin methylene alcohol was 7% and the “starting material (prodrug compound)” value was 0%.
In the case of `O=C1/C(=C2/C(=O)N(CN3CCCCC3)c3ccccc32)Nc2ccccc21` [drawing 269], the indirubin is reported as 99%, the indirubin methylene alcohol is reported as 0% and the “starting material (prodrug compound)” value is reported as 1%.
With `O=C1/C(=C2/C(=O)N(CN3CCCC3)c3ccccc32)Nc2ccccc21` [drawing 270] the indirubin was 100%, the indirubin methylene alcohol was 0% and the “starting material (prodrug compound)” value was 0%.
With `CN(C)CCN(CCN(C)C)CN1C(=O)/C(=C2\Nc3ccccc3C2=O)c2ccccc21` [drawing 271] the indirubin was 87%, the indirubin methylene alcohol was 9% and the “starting material (prodrug compound)” value was 3%.
In the case of `CN(C)C1CCN(CN2C(=O)/C(=C3\Nc4ccccc4C3=O)c3ccccc32)CC1` [drawing 272], the indirubin is reported as 44%, the indirubin methylene alcohol is reported as 10% and the “starting material (prodrug compound)” value is reported as 46%.
In the case of `CN1CCN(CN2C(=O)/C(=C3\Nc4ccccc4C3=O)c3ccccc32)CC1` [drawing 273], the indirubin is reported as 24%, the indirubin methylene alcohol is reported as 0% and the “starting material (prodrug compound)” value is reported as 74%.
With `O=C1/C(=C2/C(=O)N(CO)c3ccccc32)Nc2ccccc21` [drawing 274] the indirubin was 12%, the indirubin methylene alcohol was 88% and the “starting material (prodrug compound)” value was 0%.
In the case of `O=C1/C(=C2/C(=O)N(CN3CCC3)c3ccccc32)Nc2ccccc21` [drawing 275], the indirubin is reported as 25%, the indirubin methylene alcohol is reported as 2% and the “starting material (prodrug compound)” value is reported as 71%.
In the case of `O=C1/C(=C2/C(=O)N(CN3CCOCC3)c3ccccc32)Nc2ccccc21` [drawing 276], the indirubin is reported as 10%, the indirubin methylene alcohol is reported as 5% and the “starting material (prodrug compound)” value is reported as 85%.

Same assay, conditions: FaSSGF (Example 4; table title prints FaSSIF) 37° C., 2 h
With `CCN(CC)CN1C(=O)/C(=C2\Nc3ccccc3C2=O)c2ccccc21` [drawing 267] the indirubin was 100%, the indirubin methylene alcohol was 0% and the “starting material (prodrug compound)” value was 0%.
In the case of `CN(C)CCN(C)CN1C(=O)/C(=C2\Nc3ccccc3C2=O)c2ccccc21` [drawing 268], the indirubin is reported as 95%, the indirubin methylene alcohol is reported as 1% and the “starting material (prodrug compound)” value is reported as 0%.
With `O=C1/C(=C2/C(=O)N(CN3CCCCC3)c3ccccc32)Nc2ccccc21` [drawing 269] the indirubin was 99%, the indirubin methylene alcohol was 0% and the “starting material (prodrug compound)” value was 1%.
For `O=C1/C(=C2/C(=O)N(CN3CCCC3)c3ccccc32)Nc2ccccc21` [drawing 270], the indirubin was 100%, the indirubin methylene alcohol was 0% and the “starting material (prodrug compound)” value was 0%.
In the case of `CN(C)CCN(CCN(C)C)CN1C(=O)/C(=C2\Nc3ccccc3C2=O)c2ccccc21` [drawing 271], the indirubin is reported as 91%, the indirubin methylene alcohol is reported as 8% and the “starting material (prodrug compound)” value is reported as 2%.
In the case of `CN(C)C1CCN(CN2C(=O)/C(=C3\Nc4ccccc4C3=O)c3ccccc32)CC1` [drawing 272], the indirubin is reported as 44%, the indirubin methylene alcohol is reported as 10% and the “starting material (prodrug compound)” value is reported as 46%.
For `CN1CCN(CN2C(=O)/C(=C3\Nc4ccccc4C3=O)c3ccccc32)CC1` [drawing 273], the indirubin was 24%, the indirubin methylene alcohol was 0% and the “starting material (prodrug compound)” value was 76%.
In the case of `O=C1/C(=C2/C(=O)N(CO)c3ccccc32)Nc2ccccc21` [drawing 274], the indirubin is reported as 18%, the indirubin methylene alcohol is reported as 82% and the “starting material (prodrug compound)” value is reported as 0%.
For `O=C1/C(=C2/C(=O)N(CN3CCC3)c3ccccc32)Nc2ccccc21` [drawing 275], the indirubin was 24%, the indirubin methylene alcohol was 2% and the “starting material (prodrug compound)” value was 71%.
For `O=C1/C(=C2/C(=O)N(CN3CCOCC3)c3ccccc32)Nc2ccccc21` [drawing 276], the indirubin was 11%, the indirubin methylene alcohol was 3% and the “starting material (prodrug compound)” value was 80%.
For `O=C1/C(=C2/C(=O)N(COS(=O)(=O)O)c3ccccc32)Nc2ccccc21` [drawing 277], the indirubin was 0%, the indirubin methylene alcohol was 22% and the “starting material (prodrug compound)” value was 72%.

Same assay, conditions: FaSSGF (Example 4; table title prints FaSSIF) 37° C., 24 h
In the case of `CCN(CC)CN1C(=O)/C(=C2\Nc3ccccc3C2=O)c2ccccc21` [drawing 267], the indirubin is reported as 100%, the indirubin methylene alcohol is reported as 0% and the “starting material (prodrug compound)” value is reported as 0%.
In the case of `CN(C)CCN(C)CN1C(=O)/C(=C2\Nc3ccccc3C2=O)c2ccccc21` [drawing 268], the indirubin is reported as 95%, the indirubin methylene alcohol is reported as 5% and the “starting material (prodrug compound)” value is reported as 0%.
With `O=C1/C(=C2/C(=O)N(CN3CCCCC3)c3ccccc32)Nc2ccccc21` [drawing 269] the indirubin was 99%, the indirubin methylene alcohol was 0% and the “starting material (prodrug compound)” value was 1%.
For `O=C1/C(=C2/C(=O)N(CN3CCCC3)c3ccccc32)Nc2ccccc21` [drawing 270], the indirubin was 99%, the indirubin methylene alcohol was 1% and the “starting material (prodrug compound)” value was 0%.
For `CN(C)CCN(CCN(C)C)CN1C(=O)/C(=C2\Nc3ccccc3C2=O)c2ccccc21` [drawing 271], the indirubin was 90%, the indirubin methylene alcohol was 9% and the “starting material (prodrug compound)” value was 1%.
In the case of `CN(C)C1CCN(CN2C(=O)/C(=C3\Nc4ccccc4C3=O)c3ccccc32)CC1` [drawing 272], the indirubin is reported as 61%, the indirubin methylene alcohol is reported as 1% and the “starting material (prodrug compound)” value is reported as 31%.
With `CN1CCN(CN2C(=O)/C(=C3\Nc4ccccc4C3=O)c3ccccc32)CC1` [drawing 273] the indirubin was 41%, the indirubin methylene alcohol was 0% and the “starting material (prodrug compound)” value was 58%.
With `O=C1/C(=C2/C(=O)N(CO)c3ccccc32)Nc2ccccc21` [drawing 274] the indirubin was 22%, the indirubin methylene alcohol was 78% and the “starting material (prodrug compound)” value was 0%.
With `O=C1/C(=C2/C(=O)N(CN3CCC3)c3ccccc32)Nc2ccccc21` [drawing 275] the indirubin was 23%, the indirubin methylene alcohol was 3% and the “starting material (prodrug compound)” value was 74%.
For `O=C1/C(=C2/C(=O)N(CN3CCOCC3)c3ccccc32)Nc2ccccc21` [drawing 276], the indirubin was 29%, the indirubin methylene alcohol was 3% and the “starting material (prodrug compound)” value was 68%.
For `O=C1/C(=C2/C(=O)N(COS(=O)(=O)O)c3ccccc32)Nc2ccccc21` [drawing 277], the indirubin was 0%, the indirubin methylene alcohol was 8% and the “starting material (prodrug compound)” value was 26%.

Same assay, conditions: FaSSGF (Example 4; table title prints FaSSIF) 37° C., over a 24 hour period
For `CCN(CC)CN1C(=O)/C(=C2\Nc3ccccc3C2=O)c2ccccc21` [drawing 267], the Conversion to indirubin was 80-100%.
In the case of `CN(C)CCN(C)CN1C(=O)/C(=C2\Nc3ccccc3C2=O)c2ccccc21` [drawing 268], the Conversion to indirubin is reported as 80-100%.
With `O=C1/C(=C2/C(=O)N(CN3CCCCC3)c3ccccc32)Nc2ccccc21` [drawing 269] the Conversion to indirubin was 80-100%.
With `O=C1/C(=C2/C(=O)N(CN3CCCC3)c3ccccc32)Nc2ccccc21` [drawing 270] the Conversion to indirubin was 80-100%.
With `CN(C)CCN(CCN(C)C)CN1C(=O)/C(=C2\Nc3ccccc3C2=O)c2ccccc21` [drawing 271] the Conversion to indirubin was 80-100%.
In the case of `CN(C)C1CCN(CN2C(=O)/C(=C3\Nc4ccccc4C3=O)c3ccccc32)CC1` [drawing 272], the Conversion to indirubin is reported as 60-80%.
With `CN1CCN(CN2C(=O)/C(=C3\Nc4ccccc4C3=O)c3ccccc32)CC1` [drawing 273] the Conversion to indirubin was 40-60%.
For `O=C1/C(=C2/C(=O)N(CO)c3ccccc32)Nc2ccccc21` [drawing 274], the Conversion to indirubin was 20-40%.
For `O=C1/C(=C2/C(=O)N(CN3CCC3)c3ccccc32)Nc2ccccc21` [drawing 275], the Conversion to indirubin was 20-40%.
For `O=C1/C(=C2/C(=O)N(CN3CCOCC3)c3ccccc32)Nc2ccccc21` [drawing 276], the Conversion to indirubin was 20-40%.
In the case of `O=C1/C(=C2/C(=O)N(COS(=O)(=O)O)c3ccccc32)Nc2ccccc21` [drawing 277], the Conversion to indirubin is reported as 0-20%.
